Data from patent US20090138208A1, “IMMUNOGLOBULIN G BINDING POCKET” (GE HEALTHCARE BIO-SCIENCES AB, priority 2002, published 2009).

Columns and labels:
human Fab of κ-type = human Fab of κ-type (Homo sapiens, UniProt P01834+P01857); assay: STD NMR screening (1D saturation transfer difference) for binding to antibody; parameters: key: 0 no; 1 weak; 2 strong signal; settings: 0.5 mM ligand; for NMR signal conc 3: 20 nM antibody; for NMR signal conc 2: 100 nM antibody; for NMR signal conc 1: 500 nM antibody, 298 K
Method: All NMR experiments were performed at 298 K on a Bruker Avance 500 MHz spectrometer. The 1D saturation transfer difference method (STD NMR) was used as screening assay (Mayer M. and Meyer B. 1999. Characterization of Ligand Binding by Saturation Transfer Difference NMR Spectroscopy. Angew. Chem., Int. Ed. 38: 1784-1788) using several antibody concentrations in order to differentiate between compounds with different binding strength (Peng J. W., Lepre C. A., Fejzo J., Abdul-Manan N. and Moore J. M. 2001. Nuclear Magnetic Resonance-Based Approaches for Lead Generation in Drug Discovery. Methods in Enzymology. 338: 202-230). The antibody used was a human Fab of κ-type. In all cases ligands were tested one-by-one. On-resonance irradiation was set at 0 ppm and off-resonance irradiation was set at −40 ppm. Irradiation time in each scan was 2 s and 16 K data points were collected with 1024 scans in total. Compounds for testing were dissolved in DMSOd6 to a concentration of 50 mM and 5 μL of the concentrated ligand solution was added to 495 μL buffer solution. The samples thus consisted of 0.5 mM ligand, 20 mM phosphate buffer, 100 mM NaCl and […] in D2O at pD 7.5, uncorrected reading on pH-meter.
Compounds were initially tested for binding with 0.5 μM antibody. Interesting ligands were further tested with protein concentrations of 100 or 20 nM. A one-dimensional ^1H-spectrum was acquired first and subsequently a saturation transfer difference (STD) spectrum was acquired. Each analysis took 60 minutes on the spectrometer. […] The analysis was setup for automation so that several samples could be analysed over night (usually 10-15 samples/night).
As many as 46 of the virtual screening hits were tested with NMR according to the procedure described above. The results from NMR screening together with additional compound data are compiled in Table 1 below. In total 24 compounds gave a positive result in the first round with the highest antibody concentration (500 nM). These 24 compounds were subjected to a second round with an antibody concentration of 100 nM. The 4 compounds showing the strongest signal in the second round were tested for binding in a third round with 20 nM antibody. Three of the compounds in the third round gave a positive result and where thus designated as the strongest binders to the antibody out of the 46 tested compounds.

[1] = tested on: F(ab′)2 fragment of a different specificity (kappa); assay: STD NMR control with F(ab′)2 fragment of a different specificity; type: binding; settings: 1 μM protein; different variable part from Example 2
Method: The present example was performed with a F(ab′)2 fragment of a different specificity, i.e. a different variable part, from the one used in Example 2 above in order to verify that binding of one the selected compounds still occurred.
The testing was performed as described above in Example 2, but this time using 1 μM protein and using compound AB—0000860 as defined above in table 1. The results were positive, which implies that there is an interaction between AB—0000860 and at least two kappa Fab fragments of different specificities.

[2] = tested on: Fab fragment of lambda-type; assay: STD NMR control with Fab fragment of lambda-type; type: binding; settings: tested as in Example 2 with lambda-type Fab
Method: Apart from the different Fab fragment, the testing was performed as described above in Example 2.

Chain of human Fab of κ-type (P01857 with tags, fused parts or gaps, other chains not shown): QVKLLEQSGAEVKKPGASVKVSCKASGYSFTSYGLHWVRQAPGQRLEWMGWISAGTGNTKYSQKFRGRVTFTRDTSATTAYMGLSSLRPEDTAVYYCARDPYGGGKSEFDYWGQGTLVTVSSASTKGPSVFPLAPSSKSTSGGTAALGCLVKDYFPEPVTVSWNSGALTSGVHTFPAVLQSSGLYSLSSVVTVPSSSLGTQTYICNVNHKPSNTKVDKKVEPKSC

Q: What does the source list for `O=C1CN(c2ccccc2)C(=O)N1c1ccccc1` [AB_0000860, 1,3-diphenylimidazolidine-2,4-dione]?
A: NMR signal conc 3 (human Fab of κ-type): 1; NMR signal conc 2 (human Fab of κ-type): 2; NMR signal conc 1 (human Fab of κ-type): 2; binding to F(ab′)2 fragment (STD NMR result) [1]: positive; binding to lambda-type Fab (STD NMR result) [2]: negative

Q: `N#CCc1ccc(C(=O)c2ccccc2F)s1` [AB_0001010, 2-[5-(2-fluorobenzoyl)-2-thienyl]acetonitrile] was tested. Which “NMR signal conc 3” value (human Fab of κ-type) did it give?
A: The value was 2.

Q: What about the “NMR signal conc 2” value (human Fab of κ-type) of the same compound?
A: The value was 2.

Q: What about the “NMR signal conc 1” value (human Fab of κ-type) of the same compound?
A: The value was 2.

Q: Which “NMR signal conc 2” value (human Fab of κ-type) does the source give for `O=C1C=CC(=O)N1c1cccc(Cl)c1` [AB_0001090, n-(3-chlorophenyl)-maleimide] here?
A: The value was 0.

Q: And the “NMR signal conc 1” value (human Fab of κ-type)?
A: The value was 1.

Q: With `O=C(COc1ccc2ccccc2c1)ON1C(=O)CCC1=O` [AB_0001230, (2-naphthoxy)acetic acid, n-hydroxysuccinimide ester] as the compound, how does the “NMR signal conc 1” value (human Fab of κ-type) read?
A: The value was 0.
